Measurements: patent US20250205344A1, “2,4-DIOXOTETRAHYDROPYRIMIDINYL DERATIVES AS DEGRONS IN PROTACS” (GLAXOSMITHKLINE INTELLECTUAL PROPERTY DEVELOPMENT LIMITED, priority 2022, published 2025)
Structures can show the parent of a compound that is named as a salt.

These compounds were tested against T1, Androgen Receptor (Homo sapiens, UniProt P10275, T878A) (assay: Androgen Receptor Degradation Assay (Nano-Glo HiBiT)). Details: HiBiT-tagged AR in human LnCaP cells, 18 h.
T1 construct: the AR gene was modified, using CRISPR/Cas9 editing, so the expressed AR protein included an 11 amino acid HiBiT tag; endogenous in cells; host or cells: clonal LnCaP-derived line, AR gene edited by CRISPR/Cas9
T1 sequence (P10275 whole entry T878A): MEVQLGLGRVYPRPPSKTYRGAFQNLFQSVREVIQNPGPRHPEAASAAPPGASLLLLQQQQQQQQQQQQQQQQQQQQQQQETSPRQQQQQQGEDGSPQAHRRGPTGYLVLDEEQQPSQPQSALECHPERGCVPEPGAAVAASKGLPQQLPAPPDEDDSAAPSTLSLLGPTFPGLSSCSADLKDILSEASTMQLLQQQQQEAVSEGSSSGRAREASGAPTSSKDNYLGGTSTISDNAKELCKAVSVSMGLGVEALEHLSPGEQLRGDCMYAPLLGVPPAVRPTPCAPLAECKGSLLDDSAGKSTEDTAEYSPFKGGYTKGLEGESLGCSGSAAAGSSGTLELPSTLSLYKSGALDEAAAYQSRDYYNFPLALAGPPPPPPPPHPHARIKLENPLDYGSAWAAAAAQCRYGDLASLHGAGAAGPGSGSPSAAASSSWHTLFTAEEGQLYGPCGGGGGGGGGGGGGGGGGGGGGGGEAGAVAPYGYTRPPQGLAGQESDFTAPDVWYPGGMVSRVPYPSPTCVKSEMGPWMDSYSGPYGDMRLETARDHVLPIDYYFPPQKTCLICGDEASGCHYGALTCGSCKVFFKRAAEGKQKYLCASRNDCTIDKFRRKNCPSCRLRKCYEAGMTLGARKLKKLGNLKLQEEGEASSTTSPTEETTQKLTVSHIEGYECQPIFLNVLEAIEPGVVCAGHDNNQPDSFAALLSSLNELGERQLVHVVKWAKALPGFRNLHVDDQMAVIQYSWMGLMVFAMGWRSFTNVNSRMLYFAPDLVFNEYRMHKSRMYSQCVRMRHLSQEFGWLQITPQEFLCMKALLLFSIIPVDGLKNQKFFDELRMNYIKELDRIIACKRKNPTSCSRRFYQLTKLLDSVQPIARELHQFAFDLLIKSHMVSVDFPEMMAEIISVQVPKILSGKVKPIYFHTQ
T1 sequence (Q96SW2 whole entry partner): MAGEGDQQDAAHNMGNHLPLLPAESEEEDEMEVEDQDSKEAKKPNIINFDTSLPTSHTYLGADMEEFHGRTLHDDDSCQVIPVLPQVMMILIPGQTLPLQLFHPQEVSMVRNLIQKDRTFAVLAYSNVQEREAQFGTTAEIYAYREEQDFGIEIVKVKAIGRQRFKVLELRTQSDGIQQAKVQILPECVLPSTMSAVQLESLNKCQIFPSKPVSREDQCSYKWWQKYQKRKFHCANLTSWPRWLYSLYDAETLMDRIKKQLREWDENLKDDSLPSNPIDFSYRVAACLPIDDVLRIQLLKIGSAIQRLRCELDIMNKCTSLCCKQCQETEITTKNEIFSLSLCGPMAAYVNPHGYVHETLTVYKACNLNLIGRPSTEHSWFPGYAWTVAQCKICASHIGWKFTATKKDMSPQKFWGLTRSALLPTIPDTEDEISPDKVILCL
T1 sequence (Q16531 whole entry partner): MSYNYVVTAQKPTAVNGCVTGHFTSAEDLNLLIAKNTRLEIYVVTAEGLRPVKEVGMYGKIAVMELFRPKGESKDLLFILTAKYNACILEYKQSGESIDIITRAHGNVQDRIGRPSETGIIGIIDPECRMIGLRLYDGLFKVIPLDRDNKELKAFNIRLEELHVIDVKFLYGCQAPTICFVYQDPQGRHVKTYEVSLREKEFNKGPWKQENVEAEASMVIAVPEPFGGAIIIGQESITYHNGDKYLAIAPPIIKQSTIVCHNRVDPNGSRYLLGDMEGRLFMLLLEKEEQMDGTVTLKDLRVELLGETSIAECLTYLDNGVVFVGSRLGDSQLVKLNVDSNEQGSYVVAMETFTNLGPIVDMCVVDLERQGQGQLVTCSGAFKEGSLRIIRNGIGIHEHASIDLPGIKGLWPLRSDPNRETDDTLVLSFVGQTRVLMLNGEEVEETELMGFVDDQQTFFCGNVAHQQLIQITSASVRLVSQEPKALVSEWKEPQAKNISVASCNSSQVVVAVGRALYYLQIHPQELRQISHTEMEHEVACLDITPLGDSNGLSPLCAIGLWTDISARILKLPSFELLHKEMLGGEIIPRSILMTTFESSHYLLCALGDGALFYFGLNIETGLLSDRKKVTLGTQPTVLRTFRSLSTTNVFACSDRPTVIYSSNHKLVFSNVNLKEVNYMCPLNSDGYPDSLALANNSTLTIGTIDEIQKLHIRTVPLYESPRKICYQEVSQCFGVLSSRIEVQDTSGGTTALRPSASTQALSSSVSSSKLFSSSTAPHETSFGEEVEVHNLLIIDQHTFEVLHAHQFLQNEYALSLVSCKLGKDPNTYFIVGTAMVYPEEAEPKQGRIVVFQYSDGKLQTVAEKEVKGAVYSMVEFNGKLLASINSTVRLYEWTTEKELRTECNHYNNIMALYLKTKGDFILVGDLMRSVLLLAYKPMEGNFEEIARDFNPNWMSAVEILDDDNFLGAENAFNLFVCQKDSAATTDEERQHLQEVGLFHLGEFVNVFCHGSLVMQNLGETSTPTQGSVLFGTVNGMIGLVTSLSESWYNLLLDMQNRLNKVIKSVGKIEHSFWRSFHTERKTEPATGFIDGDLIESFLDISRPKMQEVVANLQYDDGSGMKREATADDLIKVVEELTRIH
Type: cell-based
In short: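 LnCaP cells with CRISPR-knocked-in N-terminal HiBiT-tagged AR (10,000/well) treated 18 h at 37 °C with PROTACs over 11 threefold concentrations; lytic HiBiT luminescence normalised to DMSO (0%) and cell-free (100%) controls. Relative DC50 = 4-parameter fit inflection; absolute DC50 = 50% degradation interpolation; Dmax = maximum observed degradation.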

mean relative pDC50 | SMILES
5.54 | CC1(C)[C@H](NC(=O)c2ncc(N3CCC(CN4CCC(n5ncc6c(N7CCC(=O)NC7=O)cccc65)CC4)CC3)cn2)C(C)(C)[C@H]1Oc1cnc(C#N)c(Cl)c1 [EAR268, N-((1r,3r)-3-((5-Chloro-6-cyanopyridin-3-yl)oxy)-2,2,4,4-tetramethylcyclobutyl)-5-(4-((4-(4-(2,4-dioxotetrahydropyrimidin-1(2H)-yl)-1H-indazol-1-yl)piperidin-1-yl)methyl)piperidin-1-yl)pyrimidine-2-carboxamide]

Same assay, conditions: LNCaP, 18 h, HiBiT-tagged AR in human LnCaP cells, read-out: mean asymptote max

Dmax [%] | SMILES
≥ 50 | N#Cc1ccc(O[C@H]2CC[C@H](NC(=O)c3ccc(N4CCC(CN5CCC[C@@](F)(Cn6ccc7c(N8CCC(=O)NC8=O)cccc76)C5)CC4)nn3)CC2)cc1Cl [EAR159, N-((1r,4r)-4-(3-Chloro-4-cyanophenoxy)cyclohexyl)-6-(4-(((S)-3-((4-(2,4-dioxotetrahydropyrimidin-1(2H)-yl)-1H-indol-1-yl)methyl)-3-fluoropiperidin-1-yl)methyl)piperidin-1-yl)pyridazine-3-carboxamide]
≥ 50 | N#Cc1ccc(O[C@H]2CC[C@H](NC(=O)c3ccc(N4CCC(CN5CCC(n6ccc7c(N8CCC(=O)NC8=O)cccc76)CC5)CC4)cc3)CC2)cc1Cl [EAR169, N-((1r,4r)-4-(3-chloro-4-cyanophenoxy)cyclohexyl)-4-(4-((4-(4-(2,4-dioxotetrahydropyrimidin-1(2H)-yl)-1H-indol-1-yl)piperidin-1-yl)methyl)piperidin-1-yl)benzamide]
≥ 50 | C[C@H]1CN(c2ccc(C(=O)N[C@H]3CC[C@H](Oc4ccc(C#N)c(Cl)c4)CC3)nn2)CC[C@H]1CN1CCC(n2ncc3c(N4CCC(=O)NC4=O)cccc32)CC1 [EAR227, N-((1r,4R)-4-(3-chloro-4-cyanophenoxy)cyclohexyl)-6-((3R,4R)-4-((4-(4-(2,4-dioxotetrahydropyrimidin-1(2H)-yl)-1H-indazol-1-yl)piperidin-1-yl)methyl)-3-methylpiperidin-1-yl)pyridazine-3-carboxamide]
≥ 50 | N#Cc1ccc(O[C@H]2CC[C@H](NC(=O)c3ccc(N4C[C@]5(CN6CCC(n7ncc8c(N9CCC(=O)NC9=O)cccc87)CC6)C[C@]5(C(F)(F)F)C4)nn3)CC2)cc1Cl [EAR244, N-((1r,4R)-4-(3-chloro-4-cyanophenoxy)cyclohexyl)-6-((1R,5R)-1-((4-(4-(2,4-dioxotetrahydropyrimidin-1(2H)-yl)-1H-indazol-1-yl)piperidin-1-yl)methyl)-5-(trifluoromethyl)-3-azabicyclo[3.1.0]hexan-3-yl)pyridazine-3-carboxamide]
≥ 50 | CC1CC(CN2CCC(n3ncc4c(N5CCC(=O)NC5=O)cccc43)CC2)CN1c1ccc(C(=O)N[C@H]2CC[C@H](Oc3ccc(C#N)c(Cl)c3)CC2)nn1 (some centres unmarked) [EAR232, N-((1r,4r)-4-(3-chloro-4-cyanophenoxy)cyclohexyl)-6-(4-((4-(4-(2,4-dioxotetrahydropyrimidin-1(2H)-yl)-1H-indazol-1-yl)piperidin-1-yl)methyl)-2-methylpyrrolidin-1-yl)pyridazine-3-carboxamide]
≥ 50 | N#Cc1ccc(O[C@H]2CC[C@H](NC(=O)c3ccc(N4CCC(CN5CCC(n6ncc7c(N8CCC(=O)NC8=O)cc(C(F)(F)F)cc76)CC5)CC4)nn3)CC2)cc1Cl [EAR161, N-((1r,4r)-4-(3-Chloro-4-cyanophenoxy)cyclohexyl)-6-(4-((4-(4-(2,4-dioxotetrahydropyrimidin-1(2H)-yl)-6-(trifluoromethyl)-1H-indazol-1-yl)piperidin-1-yl)methyl)piperidin-1-yl)pyridazine-3-carboxamide]
≥ 50 | N#Cc1ccc(O[C@H]2CC[C@H](NC(=O)c3ccc(N4CCC(CN5CCC(n6ccc7c(N8CCC(=O)NC8=O)cccc76)CC5)CC4)cc3F)CC2)cc1Cl [EAR187, N-((1r,4r)-4-(3-Chloro-4-cyanophenoxy)cyclohexyl)-4-(4-((4-(4-(2,4-dioxotetrahydropyrimidin-1(2H)-yl)-1H-indol-1-yl)piperidin-1-yl)methyl)piperidin-1-yl)-2-fluorobenzamide]
≥ 50 | CC1(C)[C@H](NC(=O)c2ncc(N3CCC(CN4CCC(n5ccc6c(N7CCC(=O)NC7=O)ccnc65)CC4)CC3)cn2)C(C)(C)[C@H]1Oc1cnc(C#N)c(Cl)c1 [EAR269, N-((1r,3r)-3-((5-Chloro-6-cyanopyridin-3-yl)oxy)-2,2,4,4-tetramethylcyclobutyl)-5-(4-((4-(4-(2,4-dioxotetrahydropyrimidin-1(2H)-yl)-1H-pyrrolo[2,3-b]pyridin-1-yl)piperidin-1-yl)methyl)piperidin-1-yl)pyrimidine-2-carboxamide]
≥ 50 | CC(C)n1ccc2c(N3CCC(=O)NC3=O)cc(C(=O)N3CCC4(CCN(Cc5ccc(C(=O)N[C@H]6CC[C@H](Oc7ccc(C#N)c(Cl)c7)CC6)cc5)CC4)CC3)cc21 [EAR84, N-((1r,4r)-4-(3-Chloro-4-cyanophenoxy)cyclohexyl)-4-((9-(4-(2,4-dioxotetrahydropyrimidin-1(2H)-yl)-1-isopropyl-1H-indole-6-carbonyl)-3,9-diazaspiro[5.5]undecan-3-yl)methyl)benzamide]
≥ 50 | N#Cc1ccc(O[C@H]2CC[C@H](NC(=O)c3ccc(N4CCC(CN5CC[C@H](n6ccc7c(N8CCC(=O)NC8=O)cccc76)C5)CC4)nn3)CC2)cc1Cl [EAR171, N-((1r,4r)-4-(3-Chloro-4-cyanophenoxy)cyclohexyl)-6-(4-(((R)-3-(4-(2,4-dioxotetrahydropyrimidin-1(2H)-yl)-1H-indol-1-yl)pyrrolidin-1-yl)methyl)piperidin-1-yl)pyridazine-3-carboxamide, hydrochloride]
≥ 50 | N#Cc1ccc(O[C@H]2CC[C@H](NC(=O)c3ccc(N4CCN(CC(=O)N5CCC(n6ncc7c(N8CCC(=O)NC8=O)cccc76)CC5)CC4)nn3)CC2)cc1Cl [EAR158, N-((1r,4r)-4-(3-Chloro-4-cyanophenoxy)cyclohexyl)-6-(4-(2-(4-(4-(2,4-dioxotetrahydropyrimidin-1(2H)-yl)-1H-indazol-1-yl)piperidin-1-yl)-2-oxoethyl)piperazin-1-yl)pyridazine-3-carboxamide]
≥ 50 | N#Cc1ccc(O[C@H]2CC[C@H](NC(=O)c3ccc(N4CCCC(N5CCC(n6ccc7c(N8CCC(=O)NC8=O)cccc76)CC5)C4)cc3)CC2)cc1Cl (some centres unmarked) [EAR28, N-((1r,4r)-4-(3-Chloro-4-cyanophenoxy)cyclohexyl)-4-(4-(4-(2,4-dioxotetrahydropyrimidin-1(2H)-yl)-1H-indol-1-yl)-[1,3′-bipiperidin]-1′-yl)benzamide]
≥ 50 | CC(C)n1ccc2c(N3CCC(=O)NC3=O)cc(C(=O)N(C)C3CCN(CCCCOc4ccc(C(=O)N[C@H]5CC[C@H](Oc6ccc(C#N)c(Cl)c6)CC5)nc4)CC3)cc21 [EAR64, N-(1-(4-((6-(((1r,4r)-4-(3-Chloro-4-cyanophenoxy)cyclohexyl)carbamoyl)pyridin-3-yl)oxy)butyl)piperidin-4-yl)-4-(2,4-dioxotetrahydropyrimidin-1(2H)-yl)-1-isopropyl-N-methyl-1H-indole-6-carboxamide]
≥ 50 | N#Cc1ccc(O[C@H]2CC[C@H](NC(=O)c3cnc(N4CCC(CN5CCC(n6ncc7c(N8CCC(=O)NC8=O)cccc76)CC5)CC4)cn3)CC2)cc1C(F)(F)F [EAR38, N-((1r,4r)-4-(4-Cyano-3-(trifluoromethyl)phenoxy)cyclohexyl)-5-(4-((4-(4-(2,4-dioxotetrahydropyrimidin-1(2H)-yl)-1H-indazol-1-yl)piperidin-1-yl)methyl)piperidin-1-yl)pyrazine-2-carboxamide hydrochloride]
≥ 50 | CC1(C)[C@H](NC(=O)c2ncc(N3CCC(CN4CCC(n5ncc6c(N7CCC(=O)NC7=O)cccc65)CC4)CC3)cn2)C(C)(C)[C@H]1Oc1cnc(C#N)c(Cl)c1 [EAR268, N-((1r,3r)-3-((5-Chloro-6-cyanopyridin-3-yl)oxy)-2,2,4,4-tetramethylcyclobutyl)-5-(4-((4-(4-(2,4-dioxotetrahydropyrimidin-1(2H)-yl)-1H-indazol-1-yl)piperidin-1-yl)methyl)piperidin-1-yl)pyrimidine-2-carboxamide]
≥ 50 | CC(C)n1ccc2c(N3CCC(=O)NC3=O)cc(C(=O)N3CCC4(CCCN(CCCCCc5ccc(C(=O)N[C@H]6CC[C@H](Oc7ccc(C#N)c(Cl)c7)CC6)cc5)C4)CC3)cc21 [EAR83, N-((1r,4r)-4-(3-Chloro-4-cyanophenoxy)cyclohexyl)-4-(5-(9-(4-(2,4-dioxotetrahydropyrimidin-1(2H)-yl)-1-isopropyl-1H-indole-6-carbonyl)-2,9-diazaspiro[5.5]undecan-2-yl)pentyl)benzamide]
≥ 50 | N#Cc1ccc(O[C@H]2CC[C@H](NC(=O)c3cnc(N4CCC(CN5CCC(n6ccc7c(N8CCC(=O)NC8=O)cccc76)CC5)CC4)cn3)CC2)cc1C(F)(F)F [EAR22, N-((1r,4r)-4-(4-Cyano-3-(trifluoromethyl)phenoxy)cyclohexyl)-5-(4-((4-(4-(2,4-dioxotetrahydropyrimidin-1(2H)-yl)-1H-indol-1-yl)piperidin-1-yl)methyl)piperidin-1-yl)pyrazine-2-carboxamide hydrochloride]

SMILES | Dmax [%]
N#Cc1ccc(O[C@H]2CC[C@H](NC(=O)c3ccc(N4C5CCC4CC(CN4CCC(n6ncc7c(N8CCC(=O)NC8=O)cccc76)CC4)C5)nn3)CC2)cc1Cl (some centres unmarked) [EAR230, N-((1r,4r)-4-(3-chloro-4-cyanophenoxy)cyclohexyl)-6-(3-((4-(4-(2,4-dioxotetrahydropyrimidin-1(2H)-yl)-1H-indazol-1-yl)piperidin-1-yl)methyl)-8-azabicyclo[3.2.1]octan-8-yl)pyridazine-3-carboxamide] | ≥ 50
CC(C)n1ccc2c(N3CCC(=O)NC3=O)cc(C(=O)N(C)CC3CCN(CC4CCN(c5ccc(N6C(=S)N(c7ccc(C#N)c(C(F)(F)F)c7)C(=O)C6(C)C)cc5)CC4)CC3)cc21 [EAR89, N-((1-((1-(4-(3-(4-Cyano-3-(trifluoromethyl)phenyl)-5,5-dimethyl-4-oxo-2-thioxoimidazolidin-1-yl)phenyl)piperidin-4-yl)methyl)piperidin-4-yl)methyl)-4-(2,4-dioxotetrahydropyrimidin-1(2H)-yl)-1-isopropyl-N-methyl-1H-indole-6-carboxamide] | ≥ 50
